Experimental data: patent US4016159A, “Acylamino-cephem-carboxylic acids containing an amidino or guanidino group in the molecule” (Hoechst Aktiengesellschaft, priority 1973, dated 1977)
In brackets after ≈: the same amount, converted by molar mass.

Experiments:
Assay type in all cases: cell-based
Proteus mirabilis = test: Minimum inhibition concentration (MIC), Table 2; parameters: Minimum inhibition concentration (MIC): unit not given here; settings: Germ: Proteus mirabilis; for MIC: read-out: Minimum inhibition concentration (MIC)
Description: Minimum inhibition concentration (MIC) in /ml

Streptococcus pyogenes A = test: Minimum inhibition concentration (MIC), Table 3; settings: Germ: Streptococcus pyogenes A; for MIC: read-out: Minimum inhibition concentration MIC
Description: Minimum inhibition concentration MIC in γ/ml
Germ: Streptococcus pyogenes A

[1] = system: Staphylococcus aureus 285; test: Minimum inhibition concentration (MIC), Table 1; settings: for MIC: Staphylococcus aureus, 285, Germ: Staphylococcus aureus 285, read-out: Minimum inhibition concentration (MIC); for Minimum inhibition concentration (MIC): Germ: Staphylococcus aureus 285
Description: (§1) Minimum inhibition concentration (MIC) in γ/ml
Germ: Staphylococcus aureus 285

Streptococcus D = test: Minimum inhibition concentration (MIC), Table 4; settings: Germ: Streptococcus D; for MIC: Streptococcus, read-out: Minimum inhibition concentration (MIC)
Description: as §1

[2] = system: Staphylococcus aureus SG 511; test: Minimum inhibition concentration (MIC), Table 5; settings: Staphylococcus aureus, SG511, Germ: Staphylococcus aureus SG 511; read-out: Minimum inhibition concentration (MIC)
Description: as §1
Germ: Staphylococcus aureus SG 511

SMILES | MIC (Proteus mirabilis) [µg/mL] | MIC (Streptococcus pyogenes A) [µg/mL] | MIC [1] [µg/mL] | MIC (Streptococcus D) [µg/mL] | Minimum inhibition concentration (MIC) (Proteus mirabilis) | Minimum inhibition concentration (MIC) (Streptococcus pyogenes A) [µg/mL] | Minimum inhibition concentration (MIC) [1] [µg/mL] | Minimum inhibition concentration (MIC) (Streptococcus D) [µg/mL] | MIC [2] [µg/mL]
Nn1cnnc1SCC1=C(C(=O)O)N2C(=O)C(NC(=O)Cc3ccc(C4=NCCCN4)cc3)C2SC1 (stereo not shown) [Example 100, 3-[(4-amino-4H-1,2,4-triazole-3-yl)-thiomethyl]-7-[4-(1,4,5,6-tetrahydropyrimide-2-yl)-phenylacetamido]-Δ3-cephem-4-carboxylic acid] | 3.1 to 12.5 (≈ 5.86 to 23.6 µM) | 0.008 to 0.0156 (≈ 0.0151 to 0.0295 µM) | – | – | – | – | – | – | –
O=C(Cc1ccc(C2=NCCCN2)cc1)NC1C(=O)N2C(C(=O)O)=C(CSc3nnc[nH]3)CSC12 (stereo not shown) [Example 94, 3-[(triazole-2-yl)-thiomethyl]-7-[4-(1,4,5,6-tetrahydro-pyrimide-2-yl)-phenylacetamido]-Δ3-cephem-4-carboxylic acid] | – | – | – | – | 25 | 0.008 to 0.0156 | 1.6 to 2.5 | 10 to 50 | –
Cc1n[nH]c(SCC2=C(C(=O)O)N3C(=O)C(NC(=O)Cc4ccc(C(=N)N)cc4)C3SC2)n1 (stereo not shown) [Example 23, 3-[(5-methyl-1,2,4-triazole-3-yl)-thiomethyl]-7-(4-amidino-phenylacetamido)-Δ 3-cephem-4-carboxylic acid] | 25 (≈ 51.3 µM) | – | 1.6 to 2.5 (≈ 3.28 to 5.13 µM) | – | – | – | – | – | –
Cc1nnc(SCC2=C(C(=O)O)N3C(=O)C(NC(=O)Cc4ccc(C5=NCCCN5)cc4)C3SC2)n1N (stereo not shown) [Example 101, 3-[(4-amino-5-methyl-1,2,4-triazole-3-yl)-thiomethyl]-7-[4-(1,4,5,6-tetrahydropyrimide-2-yl)-phenylacetamido]-Δ3-cephem-4-carboxylic acid] | 25 (≈ 46.1 µM) | – | 0.5 to 1.25 (≈ 0.921 to 2.3 µM) | – | – | – | – | – | –
O=C(Cc1ccc(C2=NCCCN2)cc1)NC1C(=O)N2C(C(=O)O)=C(CSc3cccc[n+]3[O-])CSC12 (stereo not shown) [Example 107, 3-[(1-oxido-2-pyridyl)-thiomethyl]-7-[4-(1,4,5,6-tetrahydropyrimide-2-yl)-phenylacetamido]-Δ3-cephem-4-carboxylic acid] | 25 (≈ 46.3 µM) | – | 1.6 to 2.5 (≈ 2.96 to 4.63 µM) | 10 to 50 (≈ 18.5 to 92.7 µM) | – | – | – | – | –
N=C(N)c1ccc(OCC(=O)NC2C(=O)N3C(C(=O)O)=C(CSc4nnc(-c5ccccc5)o4)CSC23)cc1 (stereo not shown) [Example 28, 3-[(5-5-phenyl-1,3,4-oxadiazole-2-yl)-thiomethyl]-7-(4-amidino-phenoxyacetamido)-Δ 3-cephem-4-carboxylic acid] | – | 0.000391 to 0.0078 (≈ 0.00069 to 0.0138 µM) | – | – | – | – | 0.156 to 0.391 | 10 to 50 | 0.0196 to 0.0391 (≈ 0.0346 to 0.069 µM)
CCCc1nnc(SCC2=C(C(=O)O)N3C(=O)C(NC(=O)COc4ccc(C(=N)N)cc4)C3SC2)s1 (stereo not shown) [Example 68, 3-[(5-n-propyl-1,3,4-thiadiazole-2-yl)-thiomethyl]-7-(4-amidinophenoxyacetamido)-Δ 3-cephem-4-carboxylic acid] | – | 0.008 to 0.0156 (≈ 0.0146 to 0.0284 µM) | 0.5 to 1.25 (≈ 0.911 to 2.28 µM) | 10 to 50 (≈ 18.2 to 91.1 µM) | – | – | – | – | 0.0625 to 0.078 (≈ 0.114 to 0.142 µM)
O=C(Cc1ccc(C2=NCCN2)cc1)NC1C(=O)N2C(C(=O)O)=C(CSc3nnc(-c4ccccc4)o3)CSC12 (stereo not shown) [Example 116, 3-[(5-phenyl-1,3,4-oxadiazole-2-yl)-thiomethyl]-7-[4-(imidazoline-2-yl)-phenylacetamido]-Δ3-cephem-4-carboxylic acid] | – | 0.000391 to 0.0078 (≈ 0.000678 to 0.0135 µM) | 0.5 to 1.25 (≈ 0.867 to 2.17 µM) | 10 to 50 (≈ 17.3 to 86.7 µM) | – | – | – | – | 0.0625 to 0.078 (≈ 0.108 to 0.135 µM)
N=C(N)c1ccc(OCC(=O)NC2C(=O)N3C(C(=O)O)=C(CSc4nc(-c5ccccc5)cs4)CSC23)cc1 (stereo not shown) [Example 27, 3-[(4-phenyl-1,3-thiazole-2-yl)-thiomethyl]-7-(4-amidinophenoxy-acetamido)-Δ 3-cephem-4-carboxylic acid] | – | 0.000391 to 0.0078 (≈ 0.000672 to 0.0134 µM) | 0.5 to 1.25 (≈ 0.86 to 2.15 µM) | 10 to 50 (≈ 17.2 to 86 µM) | – | – | – | – | 0.0625 to 0.078 (≈ 0.107 to 0.134 µM)
CCCCCCNC(=N)c1ccc(OCC(=O)NC2C(=O)N3C(C(=O)O)=C(CSc4nnc(-c5ccccc5)o4)CSC23)cc1 (stereo not shown) [Example 39] | – | 0.008 to 0.0156 (≈ 0.0123 to 0.024 µM) | 0.5 to 1.25 (≈ 0.768 to 1.92 µM) | 10 to 50 (≈ 15.4 to 76.8 µM) | – | – | – | – | 0.0196 to 0.0391 (≈ 0.0301 to 0.0601 µM)
O=C(COc1ccc(C2=NCCCN2)cc1)NC1C(=O)N2C(C(=O)O)=C(CSc3nncs3)CSC12 (stereo not shown) [Example 62] | – | 0.008 to 0.0156 (≈ 0.0146 to 0.0285 µM) | 0.5 to 1.25 (≈ 0.915 to 2.29 µM) | 10 to 50 (≈ 18.3 to 91.5 µM) | – | – | – | – | 0.0625 to 0.078 (≈ 0.114 to 0.143 µM)

Results, then the molecule that gave them:

MIC (Proteus mirabilis) [µg/mL] | MIC (Streptococcus pyogenes A) [µg/mL] | MIC [1] [µg/mL] | MIC (Streptococcus D) [µg/mL] | Minimum inhibition concentration (MIC) (Proteus mirabilis) | Minimum inhibition concentration (MIC) (Streptococcus pyogenes A) [µg/mL] | Minimum inhibition concentration (MIC) [1] [µg/mL] | Minimum inhibition concentration (MIC) (Streptococcus D) [µg/mL] | MIC [2] [µg/mL] | SMILES
3.1 to 12.5 (≈ 5.69 to 22.9 µM) | 0.008 to 0.0156 (≈ 0.0147 to 0.0286 µM) | 0.5 to 1.25 (≈ 0.918 to 2.29 µM) | 10 to 50 (≈ 18.4 to 91.8 µM) | – | – | – | – | – | Cc1nnc(SCC2=C(C(=O)O)N3C(=O)C(NC(=O)Cc4ccc(C5=NCCCN5)cc4)C3SC2)s1 (stereo not shown) [Example 11, 3-[(5-methyl-1,3,4-thiadiazole-2-yl)-thiomethyl]-7-[4-(1,4,5,6-tetrahydro-pyrimide-2-yl)-phenylacetamido]-Δ 3-cephem-4-carboxylic acid]
25 (≈ 52.8 µM) | – | 0.5 to 1.25 (≈ 1.06 to 2.64 µM) | – | – | – | – | – | – | N=C(N)c1ccc(CC(=O)NC2C(=O)N3C(C(=O)O)=C(CSc4nc[nH]n4)CSC23)cc1 (stereo not shown) [Example 24, 3-[(1,2,4-triazole-3-yl)-thiomethyl]-7-(4-amidino-phenylacetamido)-Δ3-cephem-4-carboxylic acid]
– | 0.000391 to 0.0078 (≈ 0.000647 to 0.0129 µM) | 0.156 to 0.391 (≈ 0.258 to 0.647 µM) | 0.196 to 6.25 (≈ 0.324 to 10.3 µM) | – | – | – | – | 0.0625 to 0.078 (≈ 0.103 to 0.129 µM) | CCCCCCNC(=N)c1ccc(OCC(=O)NC2C(=O)N3C(C(=O)O)=C(CSc4nnc(C)s4)CSC23)cc1 (stereo not shown) [Example 33, 3-[(5-methyl-1,3,4-thiadiazole-2-yl)-thiomethyl]-7-[4-(N-n-hexylamidion)-phenoxyacetamido]-Δ 3-cephem-4-carboxylic acid]
– | 0.000391 to 0.0078 (≈ 0.000725 to 0.0145 µM) | 0.156 to 0.391 (≈ 0.289 to 0.725 µM) | 0.196 to 6.25 (≈ 0.363 to 11.6 µM) | – | – | – | – | 0.0625 to 0.078 (≈ 0.116 to 0.145 µM) | N=C(N)c1ccc(CC(=O)NC2C(=O)N3C(C(=O)O)=C(CSc4nc5ccccc5s4)CSC23)cc1 (stereo not shown) [Example 92, 3-[benzothiazole-2-yl-thiomethyl]-7-[4-amidino-phenylacetamido]-Δ 3-cephem-4-carboxylic acid]
– | 0.000391 to 0.0078 (≈ 0.00069 to 0.0138 µM) | 0.156 to 0.391 (≈ 0.275 to 0.69 µM) | 10 to 50 (≈ 17.6 to 88.2 µM) | – | – | – | – | 0.0196 to 0.0391 (≈ 0.0346 to 0.069 µM) | N=C(N)c1ccc(CC(=O)NC2C(=O)N3C(C(=O)O)=C(CSc4nnc(-c5ccccc5)s4)CSC23)cc1 (stereo not shown) [Example 57, 3-[(5-phenyl-1,3,4-thiadiazole-2-yl)-thiomethyl]-7-(4-amidinophenylacetamido)-Δ3-cephem-4-carboxylic acid]
– | 0.000391 to 0.0078 (≈ 0.000644 to 0.0129 µM) | 0.156 to 0.391 (≈ 0.257 to 0.644 µM) | 10 to 50 (≈ 16.5 to 82.4 µM) | – | – | – | – | 0.0625 to 0.078 (≈ 0.103 to 0.129 µM) | O=C(Cc1ccc(C2=NCCCN2)cc1)NC1C(=O)N2C(C(=O)O)=C(CSc3nnc(-c4ccccc4)s3)CSC12 (stereo not shown) [Example 80, 3-[(5-phenyl-1,3,4,-thiadiazole-2-yl)-thiomethyl]-7-[4-(1,4,5,6-tetrahydropyrimide-2-yl)-phenylacetamido]-Δ 3-cephem-4-carboxylic acid]
– | 0.000391 to 0.0078 (≈ 0.000688 to 0.0137 µM) | 0.156 to 0.391 (≈ 0.274 to 0.688 µM) | 10 to 50 (≈ 17.6 to 87.9 µM) | – | – | – | – | 0.0625 to 0.078 (≈ 0.11 to 0.137 µM) | O=C(Cc1ccc(C2=NCCCN2)cc1)NC1C(=O)N2C(C(=O)O)=C(CSc3ccc([N+](=O)[O-])cn3)CSC12 (stereo not shown) [Example 105, 3-[(5-nitropyridine-2-yl)-thiomethyl]-7-[4-(1,4,5,6-tetrahydropyrimide-2-yl)-phenylacetamido]-Δ3-cephem-4-carboxylic acid]
– | 0.000391 to 0.0078 (≈ 0.000644 to 0.0129 µM) | 0.156 to 0.391 (≈ 0.257 to 0.644 µM) | 0.196 to 6.25 (≈ 0.323 to 10.3 µM) | – | – | – | – | 0.0196 to 0.0391 (≈ 0.0323 to 0.0644 µM) | O=C(COc1ccc(C2=NCCCN2)cc1)NC1C(=O)N2C(C(=O)O)=C(CSc3nnc(-c4ccccc4)o3)CSC12 (stereo not shown) [Example 51, 3-[(5-phenyl-1,3,4-oxadiazole-2-yl)-thiomethyl]-7-[4-(1,4,5,6-tetrahydropyrimide-2-yl)-phenoxyacetamido]-Δ 3-cephem-4-carboxylic acid]
